Like-named read-outs stand apart in the source and are kept apart here.
Columns and labels:
Assay type in all cases: in vivo
[1] = test system: Plasmopara vilicola (the causal agent of grape downy mildew); test: Test A: grape downy mildew, test suspension sprayed on grape seedlings after inoculation, visual disease rating; conditions: for pest or weed control at 40 ppm / pest or weed control at 10 µg/mL: Plasmopara, 144 h, read-out: Percent Disease Control, Test A; for pest or weed control at 10 µg/mL: ** tested at l0 ppm
From the text: General protocol for preparing test suspensions for Test A-C: The test compounds were first dissolved in acetone in an amount equal to 3% of the final volume and then suspended at the desired concentration (in ppm) in acetone and purified water (50/50 mix by volume) containing 250 ppm of the surfactant Trem® 014 (polyhydric alcohol esters). The resulting test suspensions were then used in Tests A-C. Spraying a 200 ppm test suspension to the point of run-off on the test plants was equivalent to a rate of 500 g/ha.
Grape seedlings were inoculated with a spore suspension of Plasmopara vilicola (the causal agent of grape downy mildew) and incubated in a saturated atmosphere at 20° C. for 24 h. After a short drying period, the test suspension was sprayed to the point of run-off on the grape seedlings, which were then moved to a growth chamber at 20° C. for 5 days, after which time the grape seedling were placed back into a saturated atmosphere at 20° C. for 24 h. Upon removal, visual disease ratings were made.
Results for Tests A-C are given in Table A. In the table, a rating of 100 indicates 100% disease control and a rating of 0 indicates no disease control (relative to the controls). A dash (-) indicates no test results.

[2] = test system: Phytophthora infestans (the causal agent of tomato late blight); test: whole plant or invertebrate; conditions: for pest or weed control at 40 ppm / pest or weed control at 10 µg/mL: Phytophthora infestans, 144 h, read-out: Percent Disease Control, Test B
[3] = test system: Phytophthora infestans (the causal agent of tomato late blight); test: whole plant or invertebrate; conditions: for pest or weed control at 40 ppm / pest or weed control at 10 µg/mL: Phytophthora infestans, 96 h, read-out: Percent Disease Control, Test C
[4] = compounds without asterisk (application rate not given), 100 = 100% disease control, 0 = no control relative to the controls

| Molecule | Percent Disease Control, Test A [1, 4] | Percent Disease Control, Test B [2, 4] | Percent Disease Control, Test C [3, 4] | also measured |
| --- | --- | --- | --- | --- |
| 1-[4-[4-(4,5-dihydro-5-(2-pyridinyl)-3-isoxazolyl)-2-thiazolyl]-1-piperidinyl]-2-[5-methyl-3-(trifluoromethyl)-1H-pyrazol-1-yl]ethanone [Compound 98] | 99% | 100% | 99% | – |
| 1-[4-[4-(4,5-dihydro-5-phenyl-3-isoxazolyl)-2-thiazolyl]-3,6-dihydro-1(2H)-pyridinyl]-2-[5-methyl-3-(trifluoromethyl)-1H-pyrazol-1 yl]ethanone [Compound 217] | 0% | 95% | 86% | – |
| 1-[4-[4-[5-(2-chlorophenyl)-4,5-dihydro-3-isoxazolyl]-2-thiazolyl]-1-piperidinyl]-2-[5-methyl-3-(trifluoromethyl)-1H-pyrazol-1-yl]ethanone [Compound 8] | 96% | 100% | 99% | – |
| 1-[4-[4-[(5R)-4,5-dihydro-5-phenyl-3-isoxazolyl]-2-thiazolyl]-1-piperidinyl]-2-[5-methyl-3-(trifluoromethyl)-1H-pyrazol-1-yl]ethanone [Compound 3] | 52% | 47% | 0% | – |
| 2-[5-chloro-3-(trifluoromethyl)-1H-pyrazol-1-yl]-1-[4-[4-(4,5-dihydro-5-phenyl-3-isoxazolyl)-2-thiazolyl]-1-piperidinyl]ethanone [Compound 107] | 97% | 100% | 99% | – |
| Cc1cc(C(F)(F)F)nn1CC(=O)N1CCC(c2nc(C3=NOC4(CCCCC4c4ccccc4)C3)cs2)CC1 (mixture of isomers) [Compound 170] | – | – | – | Percent Disease Control, Test A ([1]; * tested at 40 ppm): 99%; Percent Disease Control, Test B ([2]; * tested at 40 ppm): 100%; Percent Disease Control, Test C ([3]; * tested at 40 ppm): 93% |
| Cc1cc(C(F)(F)F)nn1CC(=O)N1CCC(c2nc(C3=NOC4(CCCC(c5ccccc5)C4)C3)cs2)CC1 (mixture of isomers) [Compound 171] | – | – | – | Percent Disease Control, Test A ([1]; * tested at 40 ppm): 99%; Percent Disease Control, Test B ([2]; * tested at 40 ppm): 100%; Percent Disease Control, Test C ([3]; * tested at 40 ppm): 98% |
| Cc1cc(C(F)(F)F)nn1CC(=O)N1CCC(c2nc(C3=NOC(c4cccc(Cl)c4)C3)cs2)CC1 (racemic) [Compound 17] | – | – | – | Percent Disease Control, Test A ([1]; * tested at 40 ppm): 100%; Percent Disease Control, Test B ([2]; * tested at 40 ppm): 99%; Percent Disease Control, Test C ([3]; * tested at 40 ppm): 99% |
| Cc1cc(C(F)(F)F)nn1CC(=O)N1CCC(c2nc(C3=NOC(Cc4ccccc4)C3)cs2)CC1 (racemic) [Compound 24] | 99% | 100% | 93% | – |
| Cc1cc(C(F)(F)F)nn1CC(=O)N1CCC(c2nc(C3=NOC(CCC(C)C)C3)cs2)CC1 (racemic) [Compound 27] | 100% | 100% | 98% | – |
| Cc1cc(C(F)(F)F)nn1CC(=O)N1CCC(c2nc(C3=NOC(CC(C)(C)C)C3)cs2)CC1 (racemic) [Compound 28] | 99% | 100% | 94% | – |
| Cc1cc(C(F)(F)F)nn1CC(=O)N1CCC(c2nc(C3=NO[C@@H](N4C(=O)c5ccccc5C4=O)C3)cs2)CC1 (racemic) [Compound 129] | – | – | – | Percent Disease Control, Test A ([1]; * tested at 40 ppm): 99%; Percent Disease Control, Test B ([2]; * tested at 40 ppm): 100%; Percent Disease Control, Test C ([3]; * tested at 40 ppm): 99% |
| Cc1cc(C(F)(F)F)nn1CC(=O)N1CCC(c2nc(C3=NO[C@@H](c4c(Cl)cccc4Cl)C3)cs2)CC1 (racemic) [Compound 135, 1-[4-[4-[(5R)-5-(2,6-dichlorophenyl)-4,5-dihydro-3-isoxazolyl]-2-thiazolyl]-1-piperidinyl]-2-[5-methyl-3-(trifluoromethyl)-1H-pyrazol-1-yl]ethanone] | – | – | – | pest or weed control at 40 ppm ([1]; * tested at 40 ppm): 100%; pest or weed control at 40 ppm [2]: 100%; pest or weed control at 40 ppm [3]: 99% |
| COc1cc(OC)c([C@H]2CC(c3csc(C4CCN(C(=O)Cn5nc(C(F)(F)F)cc5C)CC4)n3)=NO2)c(OC)c1 (racemic) [Compound 155, 1-[4-[4-[(5R)-4,5-dihydro-5-(2,4,6-trimethoxyphenyl)-3-isoxazolyl]-2-thiazolyl]-1-piperidinyl]-2-[5-methyl-3-(trifluoromethyl)-1H-pyrazol-1-yl]ethanone] | – | – | – | pest or weed control at 40 ppm ([1]; * tested at 40 ppm): 100%; pest or weed control at 40 ppm [2]: 100%; pest or weed control at 40 ppm [3]: 99% |
| Cc1cc(C)n(CC(=O)N2CCC(c3nc(C4=NO[C@]5(CCCc6ccccc65)C4)cs3)CC2)n1 (racemic) [Compound 164, 1-[4-[4-[(1′R)-3′,4′-dihydrospiro[isoxazole-5(4H),1′(2′H)-naphthalen]-3-yl]-2-thiazolyl]-1-piperidinyl]-2-(3,5-dimethyl-1H-pyrazol-1-yl)ethanone] | – | – | – | pest or weed control at 10 µg/mL [1]: 99%; pest or weed control at 10 µg/mL [2]: 100%; pest or weed control at 10 µg/mL [3]: 99% |
| O=C(Cn1nc(C(F)(F)F)cc1C(F)(F)F)N1CCC(c2nc(C3=NO[C@]4(CCCc5ccccc54)C3)cs2)CC1 (racemic) [Compound 229, 2-[3,5-bis(trifluoromethyl)-1H-pyrazol-1-yl]-1-[4-[4-[(1′R)-3′,4′-dihydrospiro[isoxazole-5(4H), 1′(2′H)-naphthalen]-3-yl]-2-thiazolyl]-1-piperidinyl]ethanone] | – | – | – | pest or weed control at 10 µg/mL [1]: 100%; pest or weed control at 10 µg/mL [2]: 100%; pest or weed control at 10 µg/mL [3]: 100% |
| Cc1cccc(-c2csc(C3CCN(C(=O)Cn4nc(C(F)(F)F)cc4C)CC3)n2)c1 [Compound 149] | 99% | 97% | – | – |
| COc1ccc(-c2csc(C3CCN(C(=O)Cn4nc(C(F)(F)F)cc4C)CC3)n2)cc1 [Compound 150] | 99% | 100% | – | – |
| Cc1ccc(-c2csc(C3CCN(C(=O)Cn4nc(C(F)(F)F)cc4C)CC3)n2)cc1 [Compound 151] | 100% | 99% | – | – |
| COc1cccc(-c2csc(C3CCN(C(=O)Cn4nc(C(F)(F)F)cc4C)CC3)n2)c1 [Compound 152] | 91% | 89% | – | – |
| COc1ccccc1-c1csc(C2CCN(C(=O)Cn3nc(C(F)(F)F)cc3C)CC2)n1 [Compound 153] | 73% | 0% | – | – |
